Experiment [1] deals with T1, IFN-γ (Homo sapiens, UniProt P01579).
T1 sequence (P01579 24-166): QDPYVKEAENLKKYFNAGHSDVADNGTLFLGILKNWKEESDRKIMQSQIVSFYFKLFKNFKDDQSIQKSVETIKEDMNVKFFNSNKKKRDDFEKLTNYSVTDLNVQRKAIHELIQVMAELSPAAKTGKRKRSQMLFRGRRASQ
Nature of the experiment: IFN-γ induction of MHC class II DR on peripheral blood monocytes after BP pre-incubation. In kind it is cell-based. The conditions noted are these: IFN-γ 1 μg/ml pre-incubated overnight with various concentrations of BP; HMC-1 pulsed, co-cultured with PBM. As to the method: Referring now to FIG. 2, there is shown a graph illustrating the results of a determination of whether the effect of conjugation or interaction of the substance, BP, with IFN-γ has an effect on IFN-γ activity. In summary, IFN-γ was tested for induction of MHC class II DR on human peripheral blood monocytes (PBM) as follows.
IFN-γ (1 μg/ml) was incubated overnight with various concentrations of BP. HMC-1 cells were pulsed with or without IFN-γ (10 ng/ml), BP, or BP-treated IFN-γ, for 30 min and washed 3 times in PBS. The cells were resuspended in IFS and co-cultured (2×10^5) overnight with PBM (2×10^5) in a total volume of 200 μl in polypropylene tubes (Falcon). Six tubes were set up for each HMC-1 treatment.

Experiment [2] has as its target T1, IFN-γ. Nature of the experiment: IFN-γ mediated up-regulation of MCP-1 mRNA in A549 cells (RNase protection). The class given is cell-based.
The target in experiment [3] is T1, IFN-γ. Nature of the experiment: Western blot with anti-BP antibody: conjugation of BP to IFN-γ. On the set-up: purchased PeproTech, London, UK. In kind it is binding. As to conditions: IFN-γ 10 μg/ml overnight with BP 25, 5, 0.5 mg/ml. As to the method:
(§1) SDS-PAGE and Western Blotting techniques using for this method were performed as follows. Carrier-free recombinant human IFN-γ (PeproTech, London, UK) was made to 10 μg/ml and incubated overnight with or without BP (final concentrations 25, 5, 0.5 mg/ml). At the end of the incubation period, 5×loading buffer was added and 20 μl of each sample loaded onto SDS-polyacrylamide gels. The gels were then analyzed by Western blotting, using a rabbit polyclonal anti-BP antibody. A comparative study was conducted using IL-4 in place of IFN-γ.
Referring now to FIG. 1, there is shown a Western blot illustrating the conjugation of BP to or interaction of BP to IFN-γ. FIG. 1 illustrates a method by which conjugation or interaction of a substance with a cytokine, namely IFN-γ, can be determined.
(§2) Carrier-free recombinant human IFN-γ (PeproTech, London, UK) were made to 10 μg/ml and incubated overnight with or without Benzyl Penicillin (BP) (final concentrations: 25, 5, 0.5 mg/ml). At the end of the incubation period, 5×loading buffer was added and 20 μl of each sample loaded onto SDS-polyacrylamide gels. For all samples, aliquots were then analyzed by Western blotting, using a rabbit polyclonal anti-BP antibody. A comparative study was conducted using IL-4 in place of IFN-γ.
A general note: Immunoblotting shows a protein as a band on a membrane.

For experiment [4], the target named is T2, IFN-γ (Homo sapiens, UniProt P01579).
T2 sequence (P01579 24-161 limits assumed): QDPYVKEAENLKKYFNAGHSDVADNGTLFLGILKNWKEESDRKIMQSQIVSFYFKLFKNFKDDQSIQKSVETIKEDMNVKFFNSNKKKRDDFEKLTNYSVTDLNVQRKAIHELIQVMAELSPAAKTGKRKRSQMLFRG
Put plainly: ELISA detection of IFN-γ after overnight cell-free incubation with BP. The class given is binding. As to conditions: overnight with BP 500 μg/ml. As to the method:
The generation of PBMC supernatants and RNA used for this method were prepared as follows. PBMC ([…]) were incubated in RPMI-1640 medium containing TCH (ICN) with or without PHA (Sigma, 2.5 μg/ml). At each time point, samples were centrifuged for 5 min at 400 g, the supernatants collected and analyzed of IFN-γ by ELISA (IDS, Boldon, UK).
Purified recombinant IFN-γ or cell-free supernatants from stimulated PBMC were incubated overnight with BP (500 μg/ml), then assayed by ELISA, Supernatant 1, PBMC stimulated for 20 hours with IL-2; supernatant 2, PBMC stimulated for 43 hours with IL-2; supernatant 3, PBMC stimulated for 43 hours with PHA.

Another experiment concerns the target T3, IL-4 (Homo sapiens, UniProt P05112).
T3 sequence (P05112 25-153): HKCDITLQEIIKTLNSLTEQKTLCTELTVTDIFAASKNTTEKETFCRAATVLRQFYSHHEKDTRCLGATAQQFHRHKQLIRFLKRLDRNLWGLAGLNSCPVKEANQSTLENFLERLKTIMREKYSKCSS
Put plainly: Western blot with anti-BP antibody: comparative study with IL-4. The class given is binding. The conditions noted are these: IL-4 in place of IFN-γ; compared with IFN-γ. As to the method:
as §1, §2

The source of these data is patent US20030096311A1, “Screening method for compounds” (priority 2000, published 2003).

On to `CC1(C)S[C@@H]2[C@H](NC(=O)Cc3ccccc3)C(=O)N2[C@H]1C(=O)O` [BP, benzyl penicillin], for which the “IFN-γ bioactivity (increase in DR median fluorescence on PBM)” value on IFN-γ [1] is “reduced its bioactivity in a concentration dependent manner”. The “induction of MCP-1 mRNA by IFN-γ” value on IFN-γ [2] (BP mixed with IFN-γ immediately before addition to A549 cells, lanes 10-12) was “less marked inhibiting effect”; at IFN-γ [2] (IFN-γ pre-incubated overnight with BP (20 or 10 mg/ml), A549 cells, 2 hours, lanes 4-6) it was “inhibited induction of MCP-1 mRNA”. Besides, the “conjugation to IFN-γ” value on IFN-γ [3] is listed as “conjugates to IFN-γ”. Moreover, the “IFN-γ (pg/ml) detected with BP” value is 0 pg/mL at IFN-γ [4] (PBMC supernatant 1 (IL-2, 20 hours), without BP 152); 0 pg/mL on IFN-γ [4] (PBMC supernatant 2 (IL-2, 43 hours), without BP 389); 92 pg/mL on IFN-γ [4] (PBMC supernatant 3 (PHA, 43 hours), without BP >400); 13 pg/mL at IFN-γ [4] (recombinant IFN-γ 200 pg/ml, without BP 192); 70 pg/mL at IFN-γ [4] (recombinant IFN-γ 1000 pg/ml, without BP 1015). Also, on IL-4, the “conjugation to IL-4” value is reported as “conjugates to IL-4, though to a substantially lesser degree than to IFN-γ”.
